Reference: the NIST ThermoML archive (doi:10.1021/je034254m)

Test: excess molar enthalpy (molar enthalpy of mixing); xn = mol fraction of the nth substance listed
Conditions: Liquid, Flow calorimetry

O=S1(=O)CCCC1 [sulfolane] + O
413.15 K, 1820 kPa
Conditions | excess molar enthalpy [kcal/mol]
x2 = 0.0621 | 0.0968
x2 = 0.1183 | 0.17
x2 = 0.2159 | 0.284
x2 = 0.3676 | 0.405
x2 = 0.48 | 0.443
x2 = 0.5667 | 0.445
x2 = 0.6355 | 0.428
x2 = 0.6915 | 0.401
x2 = 0.738 | 0.37
x2 = 0.7772 | 0.337
x2 = 0.8395 | 0.272
x2 = 0.8648 | 0.241
x2 = 0.887 | 0.211
x2 = 0.9067 | 0.181
x2 = 0.9243 | 0.152
x2 = 0.9401 | 0.125
x2 = 0.9544 | 0.0985
x2 = 0.9674 | 0.0727
x2 = 0.9792 | 0.0476
x2 = 0.99 | 0.0232

CN1CCCC1=O [N-methylpyrrolidone] + CO
393.15 K, 1790 kPa
Conditions | excess molar enthalpy [kcal/mol]
x2 = 0.0576 | -0.0354
x2 = 0.1114 | -0.0657
x2 = 0.2093 | -0.113
x2 = 0.2959 | -0.146
x2 = 0.3732 | -0.168
x2 = 0.4425 | -0.18
x2 = 0.5051 | -0.184
x2 = 0.5619 | -0.183
x2 = 0.6136 | -0.177
x2 = 0.6609 | -0.167
x2 = 0.7043 | -0.157
x2 = 0.7443 | -0.143
x2 = 0.7813 | -0.128
x2 = 0.8156 | -0.113
x2 = 0.8475 | -0.0968
x2 = 0.8772 | -0.0817
x2 = 0.905 | -0.0652
x2 = 0.931 | -0.0488
x2 = 0.9554 | -0.0323
x2 = 0.9784 | -0.016
x2 = 0.9893 | -0.00837
